Reference: patent publication US8629150B2, “Compounds for the treatment of hepatitis C” (priority 2011, dated 2014)

Test system: HCV pseudoparticles (genotype 1a HCV E1 and E2 envelope, H77C isolate)
Test: HCV pseudoparticle infection assay (luciferase, Huh7 cells)
Assay type: cell-based, HCV genotype 1a (H77C isolate)
Details: HCV pseudoparticle entry into Huh7 cells, luciferase 2 days after infection
[1] = Hepatitis C virus, Huh-7, 48 h, average of duplicates
[2] = Hepatitis C virus, Huh-7, 48 h, class symbol

| Compound | EC50 [1] [nM] | EC50 [2] [nM] | EC50 (average of duplicates) [nM] | EC50 (class symbol) [nM] |
| --- | --- | --- | --- | --- |
| C[C@H]1CNCCCOc2ccc(cc2)CNc2cc(nc(OCC(F)(F)F)n2)Nc2ccc(cc2)C(=O)NC1 [Example 2005] | 184 | 100 to 1000 | – | – |
| CC1(C)CNCCCOc2ccc(cc2)CNc2cc(nc(OCC(F)(F)F)n2)Nc2ccc(cn2)C(=O)NC1 [Compound 1003] | 0.21 | < 100 | – | – |
| CC1(C)CNCCCOc2ccc(cc2)CNc2cc(nc(OCC(F)(F)F)n2)Nc2ccc(cc2)C(=O)NC1 [Example 2001] | 1.34 | < 100 | – | – |
| C[C@H]1CNCC(C)(C)CNC(=O)c2ccc(nc2)Nc2cc(nc(OCC(F)(F)F)n2)NCc2ccc(cc2)OC1 [Compound 1006] | 0.45 | < 100 | – | – |
| C=C1CNCC(C)(C)CNC(=O)c2ccc(nc2)Nc2cc(nc(OCC(F)(F)F)n2)NCc2ccc(cc2)OC1 [Compound 1004] | 0.49 | < 100 | – | – |
| O=C1NCCCOCCCCOCCCNc2cc(nc(OCC(F)(F)F)n2)Nc2ccc1cn2 [Compound 1002] | 215 | 100 to 1000 | – | – |
| O=C1NCC2(CC2)CNCCCOc2ccc(cc2)CNc2cc(nc(OCC(F)(F)F)n2)Nc2ccc1cc2 [Example 2004] | 396 | 100 to 1000 | – | – |
| C[C@@H]1CNCC(C)(C)CNC(=O)c2ccc(nc2)Nc2cc(nc(OCC(F)(F)F)n2)NCc2ccc(cc2)OC1 [Compound 1007] | 0.19 | < 100 | – | – |
| CC1(C)CNCCCOc2ccc(c(F)c2)CNc2cc(nc(OCC(F)(F)F)n2)Nc2ccc(cc2)C(=O)NC1 [Example 2002] | 0.81 | < 100 | – | – |
| CC1(C)CNCCCOc2ccc(cc2F)CNc2cc(nc(OCC(F)(F)F)n2)Nc2ccc(cc2)C(=O)NC1 [Example 2003] | 0.76 | < 100 | – | – |
| CC1(C)CCNC(=O)c2ccc(cc2)Nc2cc(nc(OCC(F)(F)F)n2)NCc2ccc(cc2)OCCCN1 [Example 2006] | – | 100 to 1000 | 326 | – |
| CC1(C)CCNC(=O)c2ccc(cc2)Nc2cc(nc(OCC(F)(F)F)n2)NCc2ccc(cc2)OCCCN1 [Compound 1001] | – | – | 907 | 100 to 1000 |
| CC1CNCC(C)(C)CNC(=O)c2ccc(nc2)Nc2cc(nc(OCC(F)(F)F)n2)NCc2ccc(cc2)OC1 (centres unmarked) [Compound 1005] | 0.38 | < 100 | – | – |
